# Data reported in patent publication US20250170104A1, “INHIBITORS OF PSEUDOMONAS AERUGINOSA VIRULENCE FACTOR Lasß” (priority 2022, published 2025).
# Experiments:
# [1] = target: LasB (Pseudomonas aeruginosa (strain ATCC 15692 / DSM 22644 / CIP 104116 / JCM 14847 / LMG 12228 / 1C / PRS 101 / PAO1), UniProt P14756); assay: In vitro LasB activity assay (fluorogenic substrate); type: biochemical; details: LasB 0.3 nM, substrate 150 μM, mean ± SD
# How it was run: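 LasB (0.3 nM) preincubated 15 min at 37 °C with compound, then 150 µM Abz-Ala-Gly-Leu-Ala-p-nitrobenzylamide added in 50 mM Tris pH 7.2, 2.5 mM CaCl2, 0.075% Pluronic F-127, 5% DMSO. Fluorescence (ex 340, em 415 nm) followed 60 min at 37 °C. IC50 from blank-corrected v/v0 slopes, nonlinear regression, Hill slope fixed at 1.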
# [2] = target: MMP1 (Homo sapiens (Human), UniProt P03956); assay: Selectivity assay: inhibition of MMPs; type: biochemical
# MMP1, sequence (P03956 100-469): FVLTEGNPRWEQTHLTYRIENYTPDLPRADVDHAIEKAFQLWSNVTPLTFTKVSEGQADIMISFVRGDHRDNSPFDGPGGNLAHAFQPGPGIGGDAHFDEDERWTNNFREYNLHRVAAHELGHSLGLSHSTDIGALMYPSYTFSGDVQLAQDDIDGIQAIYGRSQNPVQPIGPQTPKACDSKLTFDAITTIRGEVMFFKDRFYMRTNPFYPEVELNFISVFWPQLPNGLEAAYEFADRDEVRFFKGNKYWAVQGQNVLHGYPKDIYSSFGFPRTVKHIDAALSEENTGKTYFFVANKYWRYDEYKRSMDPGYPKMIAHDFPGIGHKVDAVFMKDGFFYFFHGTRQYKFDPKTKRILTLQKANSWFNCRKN
# Experimental: (§1) MMPs-1, -2, -3, -7, -8 and -14 along with the SensoLyte 520 Generic MMP Activity Kit*Fluorimetric* were purchased from AnaSpec (Fremont, CA, USA). The assay was performed as described previously (Schönauer E, Kany A M, Haupenthal J, Hüsecken K, Hoppe I J, Voos K, et al. Discovery of a Potent Inhibitor Class with High Selectivity toward Clostridial Collagenases. J Am Chem Soc. 2017 Sep. 13; 139(36):12696-703) using batimastat as a positive control according to the guidelines of the manufacturer.
# [3] = target: MMP2 (Homo sapiens (Human), UniProt P08253); assay: Selectivity assay: inhibition of MMPs; type: biochemical
# MMP2, sequence (P08253 110-660): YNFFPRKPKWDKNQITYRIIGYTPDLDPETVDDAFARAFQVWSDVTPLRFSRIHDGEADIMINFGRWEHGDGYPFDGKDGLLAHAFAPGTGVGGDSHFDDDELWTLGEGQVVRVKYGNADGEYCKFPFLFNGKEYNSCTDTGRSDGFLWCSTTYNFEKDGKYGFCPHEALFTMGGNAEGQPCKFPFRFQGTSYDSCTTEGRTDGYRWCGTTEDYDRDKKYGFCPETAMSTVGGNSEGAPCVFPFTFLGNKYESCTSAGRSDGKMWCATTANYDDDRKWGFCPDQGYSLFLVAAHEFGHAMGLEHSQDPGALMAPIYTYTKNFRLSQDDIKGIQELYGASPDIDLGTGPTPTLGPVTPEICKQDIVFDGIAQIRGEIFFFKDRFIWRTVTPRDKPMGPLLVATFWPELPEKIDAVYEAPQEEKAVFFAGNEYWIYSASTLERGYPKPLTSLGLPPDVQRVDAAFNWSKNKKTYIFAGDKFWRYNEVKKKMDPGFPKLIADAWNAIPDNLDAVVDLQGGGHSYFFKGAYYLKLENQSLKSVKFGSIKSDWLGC
# Experimental: as §1
# [4] = target: MMP3 (Homo sapiens (Human), UniProt P08254); assay: Selectivity assay: inhibition of MMPs; type: biochemical
# MMP3, sequence (P08254 100-477): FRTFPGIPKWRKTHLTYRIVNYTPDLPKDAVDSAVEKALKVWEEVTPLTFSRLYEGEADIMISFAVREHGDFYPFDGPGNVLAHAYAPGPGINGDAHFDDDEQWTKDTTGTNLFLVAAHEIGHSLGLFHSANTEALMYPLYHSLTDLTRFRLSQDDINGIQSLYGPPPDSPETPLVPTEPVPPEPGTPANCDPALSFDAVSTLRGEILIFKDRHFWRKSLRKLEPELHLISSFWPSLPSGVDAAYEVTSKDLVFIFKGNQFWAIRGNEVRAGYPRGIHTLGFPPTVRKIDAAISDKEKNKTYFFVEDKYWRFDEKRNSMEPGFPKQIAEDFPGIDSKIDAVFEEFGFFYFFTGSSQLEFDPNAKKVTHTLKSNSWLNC
# Experimental: as §1
# [5] = target: ADAM-17 (TACE) (Homo sapiens (Human), UniProt P78536); assay: ADAM-17 (TACE) inhibitor screening assay; type: biochemical; details: read-out: Selectivity IC50 TACE
# ADAM-17 (TACE), sequence (P78536 whole entry, looked up): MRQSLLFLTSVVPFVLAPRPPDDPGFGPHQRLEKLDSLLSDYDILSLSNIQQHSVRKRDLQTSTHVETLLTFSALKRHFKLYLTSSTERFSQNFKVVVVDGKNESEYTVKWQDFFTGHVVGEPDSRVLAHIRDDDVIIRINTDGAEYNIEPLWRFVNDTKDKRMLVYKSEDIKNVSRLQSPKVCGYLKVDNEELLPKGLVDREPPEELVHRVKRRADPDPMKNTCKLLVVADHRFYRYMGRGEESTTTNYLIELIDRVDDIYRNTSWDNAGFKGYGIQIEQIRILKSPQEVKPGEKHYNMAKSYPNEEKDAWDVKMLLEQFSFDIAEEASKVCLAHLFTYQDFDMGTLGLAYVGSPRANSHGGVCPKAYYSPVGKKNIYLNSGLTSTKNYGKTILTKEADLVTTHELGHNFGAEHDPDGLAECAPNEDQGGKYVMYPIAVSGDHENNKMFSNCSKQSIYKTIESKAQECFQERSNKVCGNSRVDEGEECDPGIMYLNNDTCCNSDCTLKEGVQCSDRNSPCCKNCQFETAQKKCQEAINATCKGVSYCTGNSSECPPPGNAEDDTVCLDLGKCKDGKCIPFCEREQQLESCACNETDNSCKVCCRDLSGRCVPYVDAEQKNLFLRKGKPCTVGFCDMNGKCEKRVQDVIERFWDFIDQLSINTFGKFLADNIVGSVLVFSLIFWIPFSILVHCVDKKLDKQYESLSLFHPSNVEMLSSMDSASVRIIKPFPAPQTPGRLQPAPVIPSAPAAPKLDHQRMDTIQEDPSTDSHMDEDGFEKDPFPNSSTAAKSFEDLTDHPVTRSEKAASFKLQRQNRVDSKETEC
# Experimental: The ADAM-17 (TACE) Inhibitor Screening Assay Kit was purchased from Sigma-Aldrich. The assay was performed according to the guidelines of the manufacturer using ilomastat as a positive control. Fluorescence signals were measured in a CLARIOstar plate reader (BMG Labtech).
# [6] = Cytotoxicity assay; type: cell-based; details: human
# Experimental: HepG2, HEK293 or A549 cells (2×10^5 cells per well) were seeded in 24-well, flat-bottomed plates. Culturing of cells, incubations, and OD measurements were performed as described previously (Int. J. Cancer 2007, 121, 206-210). Twenty-four hours after seeding the cells, the incubation was started by the addition of test compound in a final DMSO concentration of 1%. The living cell mass was determined after 48 h. At least two independent measurements were performed for each compound.
# [7] = test system: P. aeruginosa PAO1 (strain DSM22644); assay: G. mellonella larvae survival after PAO1 infection; type: in vivo; details: for Final survival percentage of larvae: 3 CFU/Larva, 24 h
# Experimental: Bacteria were grown overnight, diluted to OD600 of 0.025 in 10 ml medium, and grown for approx. 2 hours at 37° C. inside a shaker incubator until the OD600 of 1.8-2 is reached. The culture was then serially diluted in sterile PBS (pH=7.2). Bacterial densities of 3000, 300, 30, and 3 CFU/Larva were selected for injection into groups of 15 larvae. A total volume of 5 μl was injected into each larva via the hindmost left proleg by using a syringe pump and Sterican® needles (0.30×12 mm, 30G×½). In addition, control group without injection for the quality of the larvae and a PBS control to monitor the effect of the injection were included in the experiment. All test groups and control groups were incubated at 37° C. in the dark and monitored every 2 hours from 17 hours post-infection.
# In vivo evaluation of compounds 162 and 169. Bacteria were cultured and prepared according to the previous section. Final concentrations of 50 μM, 25 μM, and 12.5 μM in combination with 3 CFU/Larva were injected into groups of 15 larvae. In addition to no injection and PBS controls, one group was infected with 3 CFU/Larva and considered the negative control. All test groups and control groups were incubated at 37° C. in the dark and monitored every 2 hours from 17 hours post-infection.
# LasB, sequence (P14756 198-498): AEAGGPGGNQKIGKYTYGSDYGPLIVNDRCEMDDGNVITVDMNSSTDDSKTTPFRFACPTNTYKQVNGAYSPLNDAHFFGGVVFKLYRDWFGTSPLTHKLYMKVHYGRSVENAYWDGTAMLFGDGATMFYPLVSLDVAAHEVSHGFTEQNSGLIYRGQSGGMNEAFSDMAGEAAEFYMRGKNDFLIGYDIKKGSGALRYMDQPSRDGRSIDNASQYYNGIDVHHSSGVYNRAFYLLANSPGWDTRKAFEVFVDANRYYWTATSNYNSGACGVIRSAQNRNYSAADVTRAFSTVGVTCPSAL
smiles,measurement,setting,value
"CC(C)CC(C(=O)NO)C(=O)Nc1ccc(Cn2cc(CNS(=O)(=O)CC(C)C)nn2)cc1 (stereo not drawn) [Compound 169, 2-(Hydroxycarbamoyl)-N-[4-[[4-[(isobutylsulfonylamino)methyl]triazol-1-yl]methyl]phenyl]-4-methyl-pentanamide]",IC50,[1],0.0052 ± 0.0002 µM
same,IC50,[2],> 100 µM
same,IC50,[3],> 100 µM
same,IC50,[4],> 100 µM
same,IC50,[5],> 100 µM
same,IC50 at 48 h,[6]; A549 cells,> 100 µM
same,IC50 at 48 h,[6]; HEK293 cells,> 100 µM
same,IC50 at 48 h,[6]; HepG2 cells,> 100 µM
same,Final survival percentage of larvae,[7]; 12.5 μM,53%
same,Final survival percentage of larvae,[7]; 25 μM,73%
same,Final survival percentage of larvae,[7]; 50 μM,82%
same,Improvement in survival of larvae compared to negative control,"[7]; 50 μM, vs 3 CFU/Larva without treatment",40%
